Test results: article PMC6102213, “Repurposing Thioridazine (TDZ) as an anti-inflammatory agent” (Scientific Reports, 2018)

Target: T1, IKKβ (Homo sapiens, UniProt O14920)
T1 construct: gene IKBKB
T1 sequence (O14920 1-756): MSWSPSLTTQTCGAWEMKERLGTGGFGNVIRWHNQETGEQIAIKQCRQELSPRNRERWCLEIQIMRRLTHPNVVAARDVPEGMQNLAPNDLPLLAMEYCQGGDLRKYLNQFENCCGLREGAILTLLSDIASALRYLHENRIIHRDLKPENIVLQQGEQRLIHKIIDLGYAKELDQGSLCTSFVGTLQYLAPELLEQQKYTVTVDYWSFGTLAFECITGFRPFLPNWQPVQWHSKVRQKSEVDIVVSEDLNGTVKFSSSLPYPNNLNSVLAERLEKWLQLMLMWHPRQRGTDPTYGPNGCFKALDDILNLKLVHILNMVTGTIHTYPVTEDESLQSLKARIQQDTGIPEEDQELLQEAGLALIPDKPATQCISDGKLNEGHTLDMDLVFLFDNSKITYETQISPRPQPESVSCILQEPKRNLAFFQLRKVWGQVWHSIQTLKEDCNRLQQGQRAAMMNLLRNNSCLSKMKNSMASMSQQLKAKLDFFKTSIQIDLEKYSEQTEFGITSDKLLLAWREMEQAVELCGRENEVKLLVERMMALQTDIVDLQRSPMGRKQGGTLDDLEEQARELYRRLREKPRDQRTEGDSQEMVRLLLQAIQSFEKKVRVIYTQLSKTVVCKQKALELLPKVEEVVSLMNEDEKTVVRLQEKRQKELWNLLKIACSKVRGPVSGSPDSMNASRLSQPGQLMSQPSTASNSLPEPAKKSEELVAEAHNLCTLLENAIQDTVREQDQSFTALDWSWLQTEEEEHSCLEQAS
Assay: ADP-Glo IKKβ kinase assay (Promega), […] ng IKKβ, IKKtide, […] ATP
Type: biochemical

IC50: 3.63 nM
Compound: CSc1ccc2c(c1)N(CCC1CCCCN1C)c1ccccc1S2 (stereo not shown) [TDZ, Thioridazine]
